The values below are quoted from earlier work in patent US20080274189A1, “Organic Compounds Comprising a Glycopyrr Onium Salt” (priority 2005, published 2008).

SMILES strings stand for the structures.

The conditions of the data set: aerosol formulation, single administration of a metered dose, asthma.

As for `C[N+]1(C)CCC(OC(=O)C(O)(c2ccccc2)C2CCCC2)C1.[Br-]` (racemic) [glycopyrrolate, 3-[(cyclopentyl-hydroxyphenylacetyl)oxy]-1,1-dimethylpyrrolidinium bromide], the duration of bronchodilation entry is listed as “up to 12 hours”.
